Results on one compound are retold here after US4535081A, “Antiallergic and antiulcer 1-oxo-1H-thiazolo[3,2-a]pyrimidine-2-carboxamides and intermediates therefor” (Pfizer Inc., priority 1983, dated 1985).

Molecules are shown by their SMILES. Entries after “also recorded” stand apart in the source; their conditions may differ.

The test system of series [1] is passive cutaneous anaphylaxis (PCA). The experiment in a line: Intravenous activity in PCA test. The format is in vivo, rat. The method, then:
In the PCA test, normal animals are injected intradermally (i.d.) with antibodies contained in serum obtained from actively sensitized animals. The animals are then challenged intravenously with antigen mixed with a dye such as Evans' Blue. The increased capillary permeability caused by the antigen-antibody reaction causes the dye to leak from the site of the antibody injection. The test animals are then asphyxiated and the intensity of the reaction determined by measuring the diameter and intensity of the blue coloration on the inner surface of the animals' skin.
The ability of agents to interfere with PCA reactions is measured in male Charles River Wistar rats, 170-210 g. Reaginic antiserum, rich in IgE antibodies, is prepared according to Petillo et al., Int. Arch. […] Hyperimmune antiserum rich in IgG antibodies to hen egg albumin is prepared according to Orange et al., J. Exptl. […] Forty-eight hours prior to antigen challenge, the reaginic antiserum is injected intradermally (i.d.) into the shaved skin of a normal rat's back; 5 hours before challenge the hyperimmune antisera is similarly injected. […] The difference is expressed as percent blockage due to the compound employed.

Series [2] relates to isolated guinea pig ileum (slow reacting substance of anaphylaxis). As to the kind of experiment: Isolated ileum spasm, slow reacting substance of anaphylaxis. The following applies: 10^-8 to 10^-4 M.
In series [3] the test system is cold-restraint stress gastric ulcer. As to the kind of experiment: Cold-restraint stressed rat ulcer assay. Type of series: in vivo. How it is done:
The effectiveness of the products of this invention as anticulcer agents is determined by the so-called cold-restraint stressed rat assay. In this test non-fasted female rats (Charles River C-D strain) weighing 70-140 gms. are administered the drug or carrier (control animals) intraperitoneally (in saline solution containing 1% carboxymethylcellulose and 0.1% Tween 80) or orally (in water) three hours before being lightly anesthetized with ether and taped in the supine position to individual sheets of plexiglass. After recovery from anesthesia, the restrained animals are positioned horizontally in a refrigerator maintained at 10°-12° C. and three hours later sacrificed by cervical dislocation. The abdomen of each rat is opened, the pylorus clamped, the stomach inflated with saline via an oral tube, the esophagus clamped and the stomach excised. The stomachs are placed in a 0.4% formaldehyde solution for approximately 30 seconds to harden the outer layers and facilitate examination. Each stomach is then cut open along the greater curvature and the glandular portion (hind stomach) examined for damage. The number of gastric erosions, their severity and the color of the stomachs is recorded. […]

The subject of the next series is serum enzyme levels. As to the kind of experiment: Serum enzyme levels, intravenous five days, dogs. Type of series: in vivo, dog. The following applies: five days, 1, 3, 10, 3 and 3 mg/kg.
A further series has as its system rats. The experiment in a line: Oral toleration, 10 days, rats. Type of series: in vivo, rat. The note with it: 10 days, 50, 150 and 300 mg/kg/day. How it is done: Rats were given III orally by gavage at doses of 50, 150 and 300 mg/kg/day for 10 days.
In a further series the test system is human lymphocytes. As to the kind of experiment: Chromosomal breakage in human lymphocytes in vitro. Type of series: cell-based. The note with it: 1000, 100, 10 or 0 μg/ml.

`O=C(Nc1nnn[nH]1)c1cnc2sc3c(n2c1=O)CCCC3` [Compound III, N-(5-Tetrazolyl)-1-oxo-1H-cyclohexenothiazolo[3,2-a]pyrimidine-2-carboxamide]: the “intravenous activity range in the PCA test” value in series [1] was 0.03 to 1.0 mg/kg. In addition, the “potency relative to Intal in the PCA test” value in series [1] (vs Intal) is listed as approximately 26 times. The “antagonism of spasm of isolated guinea pig ileum” value in series [2] is reported as “does not antagonize spasms”. In series [3] (oral), the “oral dose range of dose-related protection, cold-restraint stress” value fell in the range of 3 to 100 µg/kg. Besides, the “potency in cold-restraint stress gastric ulcer procedure” value in series [3] (rat, in vivo) is listed as “extremely potent; also recorded: highly potent”. For the same compound, in the series with serum enzyme levels, the serum enzyme levels entry was “remained normal”. Also, the “pathological changes, gross and microscopic (liver, kidney, heart, lung)” value with rats (oral gavage) is listed as “no resultant pathological changes”. For the same compound, the “clinical chemistry apart from serum glutamic-pyruvic transaminase” value in the series with rats (oral) is reported as “no changes in clinical chemistry were observed”. Moreover, the “drug-induced chromosomal breakage, human lymphocytes” value in the series on human lymphocytes was “failed to reveal any significant drug-induced chromosomal breakage”.
